Where a name gives a salt, the structure may show the parent alone. Read-outs that look alike come from different tables or passages of the source.
Assays:
[1] = system: passive cutaneous anaphylaxis (PCA) in rats; assay: 48 hr homologous passive cutaneous anaphylaxis (PCA) in rats; format: in vivo, Male Wistar rats; conditions: Rattus norvegicus, po, read-out: the percent inhibition of PCA in rats
Description: (§1) The results of 48 hr homologous passive cutaneous anaphylaxis (PCA) in rats with the monitoring of antiallergic activity and the results of potentiation of hexobarbital-induced anesthesia in mice with the monitoring of central nervous depressive activity are summarized in Table 1. The following compound was used as the reference compound. Reference compound : Ketotifen-Fumarate
Ascaris extract coupled with 2, 4-dinitrophenyl group (DNP-As) was prepared by the method of Koda et al. (Folia pharmacol. japon., 78, 319-334, 1981) and anti-DNP-As containing IgE antibody serum was prepared by the method of Tada and Okumura (J. Immunol., 106, 1019-1025, 1971). The PCA titer of the antiserum was estimated to be 1:128 by 48 hr PCA in rats.
Male Wistar rats weighing 160 to 200 g were sensitized passively by intradermal injection, in the back, of 0.05 ml of anti-DNP-As serum diluted 21-fold with saline. After 48 hr, the animals (18-20 hr fasted) were given iv. 0.5 ml of 1% Evans blue solution containing 1 mg of DNP-As. After an additional 30 min, the animals were killed by stunning and the skins were removed. The intensity of the response was evaluated by assaying the amount of dye leaked according to the method of Katayama et al. (Microbiol. Immunol., 22, 89-101, 1978). The percent inhibition of PCA was calculated using the following formula: [formula]
Test compounds were given orally in a dose of 1 mg/kg 1 hr prior to challenge with antigen. As a control, 5 ml/kg of vehicle (0.5 % CMC) alone were given in a similar manner.

[2] = system: hexobarbital-induced anesthesia in mice; design: species or system male ddY mice; conditions: mouse, in vivo
Excerpt: as §1
The loss of righting reflex induced by hexobarbital was used as an index of anesthesia. Groups of eight male ddY mice (20-24 hr fasted) weighing 19 to 27 g were treated orally with the test compounds (30 mg/kg) or vehicle. Thirty min later, 80 mg/kg of hexobarbital sodium were injected i.p. to the animals and the duration of loss of righting reflex was observed.

[3] = 1 mg/kg, p.o., 1 hr prior to challenge with antigen, amount of dye leaked

Structure (SMILES)	inhibition in vivo at 1 mg/kg [1, 3]	the percent increase of hexobarbital-induced anesthesia in mice [2]	inhibition in vivo at 1 mg/kg [1]
Cl.O=C(O)CCN1CCC(=C2c3ccccc3CC(=O)c3sccc32)CC1 [Example 5, 4-(4,9-Dihydro-10-oxo-10H-benzo[4,5]cyclohepta[1,2-b]thiophen-4-ylidene)-1-piperidinepropionic Acid Hydrochloride]	75%	24%	
Cl.O=C(O)CCCN1CCC(=C2c3ccccc3CC(=O)c3sccc32)CC1 [Example 6, 4-(4,9-Dihydro-10-oxo-10H-benzo[4,5]cyclohepta[1,2-b]thiophen-4-ylidene)-1-piperidinebutyric Acid Hydrochloride]	77%	26%	
Cl.O=C(O)CCCCN1CCC(=C2c3ccccc3CC(=O)c3sccc32)CC1 [Example 8, 4-(4,9-Dihydro-10-oxo-10H-benzo[4,5]cyclohepta[1,2-b]thiophen-4-ylidene)-1-piperidinevaleric Acid Hydrochloride]	71%	27%	
O=C(O)CCN1CCC(=C2c3ccccc3CSc3ccccc32)CC1 [Example 10, 4-(Dibenzo[b,e]thiepin-11(6H)-ylidene)-1-piperidinepropionic Acid Hydrochloride]	69%	19%	
O=C(O)CCCN1CCC(=C2c3ccccc3CSc3ccccc32)CC1 [Example 13, 4-(Dibenzo[b,e]thiepin-11(6H)-ylidene)-1-piperidinebutyric Acid Hydrochloride]	58%	30%	
Cl.O=C(O)CCCCN1CCC(=C2c3ccccc3CSc3ccccc32)CC1 [Example 14, 4-(Dibenzo[b,e]thiepin-11(6H)-ylidene)-1-piperidinevaleric Acid Hydrochloride]	63%	19%	
Cl.O=C(O)CCCCCN1CCC(=C2c3ccccc3CSc3ccccc32)CC1 [Example 15, 4-(Dibenzo[b,e]thiepin-11(6H)-ylidene)-1-piperidinecaproic Acid Hydrochloride]	57%	33%	
O=C(O)CCN1CCC(=C2c3ccccc3Sc3ccccc32)CC1 [Example 18, 4-(9H-Thioxanthen-9-ylidene)-1-piperidinepropionic Acid]	96%	49%	
CN1CCC(=C2c3ccccc3CC(=O)c3sccc32)CC1 [Reference compound, 4,9-dihydro-4-(1-methyl-4-piperidinylidene)-10H-benzo[4,5]cyclohepta[1,2-b]thiophen-10-one, reference compound]		90%	56%
